Laboratory results from ChEMBL document CHEMBL1201862, “PubChem BioAssay data set” (2004).
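Interpolation was linear, between the two tested concentrations surrounding the appropriate level; five concentrations were tested over 48 hours in 96-well plates. GI50 is the concentration that inhibits growth by half.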 Calls of active or inactive are those of the source. Rule as the data show it: active = GI50 up to about 1.1 µM and inactive = higher.

Legend:
Assay in all cases: growth of human tumour cells (NCI), 48 h
DMS-273 = test system: DMS-273
RXF 631 = test system: RXF 631
DMS-114 = test system: DMS-114
SNB-78 = test system: SNB-78
DLD-1 = test system: DLD-1
M19-MEL = test system: M19-MEL
LXFL 529 = test system: LXFL 529
KM-20L2 = test system: KM-20L2
XF498 = test system: XF498

Structure (SMILES): O=C1/C(=C/c2ccccc2)CN(C(=O)CCN2CCOCC2)C/C1=C\c1ccccc1
- GI50 (DMS-273): 1.87 µM (inactive)
- GI50 (RXF 631): 7.8 µM (inactive)
- GI50 (DMS-114): 2.88 µM (inactive)
- GI50 (SNB-78): 6.4 µM (inactive)
- GI50 (DLD-1): 1.88 µM (inactive)
- GI50 (M19-MEL): 2 µM (inactive)
- GI50 (LXFL 529): 2.52 µM (inactive)
- GI50 (KM-20L2): 1.92 µM (inactive)

Structure (SMILES): CCOC(=O)C1=C(Nc2ccc(Br)cc2)OCC1=O
- GI50 (DMS-273): > 100 µM (inactive)
- GI50 (SNB-78): > 100 µM (inactive)
- GI50 (DLD-1): > 100 µM (inactive)
- GI50 (M19-MEL): > 100 µM (inactive)
- GI50 (LXFL 529): > 100 µM (inactive)
- GI50 (KM-20L2): > 100 µM (inactive)

Structure (SMILES): COc1ccc(OC)c(NC(=O)CCC/C(CC(=O)c2ccc(O)c(OC)c2)=N\Nc2ccc([N+](=O)[O-])cc2)c1
- GI50 (DMS-273): 57.3 µM (inactive)
- GI50 (RXF 631): 96.4 µM (inactive)
- GI50 (XF498): 41.1 µM (inactive)
- GI50 (DMS-114): > 100 µM (inactive)
- GI50 (SNB-78): 43.6 µM (inactive)
- GI50 (DLD-1): > 100 µM (inactive)
- GI50 (M19-MEL): > 100 µM (inactive)
- GI50 (LXFL 529): 32.7 µM (inactive)
- GI50 (KM-20L2): > 100 µM (inactive)

Structure (SMILES): NC1=NN(c2ccccc2)C(=O)C1C(=O)C(=O)Nc1nccs1 (stereo not drawn)
- GI50 (DMS-273): > 100 µM (inactive)
- GI50 (RXF 631): > 100 µM (inactive)
- GI50 (DMS-114): > 100 µM (inactive)
- GI50 (SNB-78): > 100 µM (inactive)
- GI50 (DLD-1): > 100 µM (inactive)
- GI50 (M19-MEL): > 100 µM (inactive)
- GI50 (LXFL 529): > 100 µM (inactive)
- GI50 (KM-20L2): > 100 µM (inactive)

Structure (SMILES): O=C(C(=O)N1CC2C=CC1CC2)c1c[nH]c2ccccc12 (stereo not drawn)
- GI50 (DMS-273): > 100 µM (inactive)
- GI50 (RXF 631): > 100 µM (inactive)
- GI50 (DMS-114): > 100 µM (inactive)
- GI50 (SNB-78): > 100 µM (inactive)
- GI50 (DLD-1): > 100 µM (inactive)
- GI50 (M19-MEL): > 100 µM (inactive)
- GI50 (LXFL 529): > 100 µM (inactive)
- GI50 (KM-20L2): > 100 µM (inactive)

Structure (SMILES): CC(=O)NC(CCCCNC(=O)NCCCl)C(=O)NCc1ccccc1 (stereo not drawn)
- GI50 (DMS-273): > 100 µM (inactive)
- GI50 (RXF 631): > 100 µM (inactive)
- GI50 (XF498): > 100 µM (inactive)
- GI50 (DMS-114): > 100 µM (inactive)
- GI50 (DLD-1): > 100 µM (inactive)
- GI50 (M19-MEL): > 100 µM (inactive)
- GI50 (LXFL 529): > 100 µM (inactive)
- GI50 (KM-20L2): > 100 µM (inactive)

Structure (SMILES): O=C1O/C(=C(\Br)c2cccc3ccccc23)c2ccccc21
- GI50 (DMS-273): 24.5 µM (inactive)
- GI50 (DMS-114): > 33.3 µM (inactive)
- GI50 (SNB-78): 30.8 µM (inactive)
- GI50 (DLD-1): 23.5 µM (inactive)
- GI50 (M19-MEL): 36.1 µM (inactive)
- GI50 (LXFL 529): > 47.1 µM (inactive)
- GI50 (KM-20L2): 25.1 µM (inactive)

Structure (SMILES): N/N=C1\C(=O)N(c2ccc(Cl)cc2Cl)C(=O)C(=O)C1c1nc2ccccc2o1 (stereo not drawn)
- GI50 (DMS-273): > 100 µM (inactive)
- GI50 (RXF 631): > 100 µM (inactive)
- GI50 (DMS-114): > 100 µM (inactive)
- GI50 (SNB-78): > 100 µM (inactive)
- GI50 (DLD-1): > 100 µM (inactive)
- GI50 (M19-MEL): > 100 µM (inactive)
- GI50 (LXFL 529): > 100 µM (inactive)
- GI50 (KM-20L2): > 100 µM (inactive)

Structure (SMILES): Cc1ccc2nc(NC(=O)C(=O)C(C(=O)c3ccc4ccccc4c3)C3OC(=O)c4ccccc43)sc2c1 (stereo not drawn)
- GI50 (DMS-114): 8.22 µM (inactive)
- GI50 (SNB-78): 4.36 µM (inactive)
- GI50 (DLD-1): 13 µM (inactive)
- GI50 (M19-MEL): 14.5 µM (inactive)
- GI50 (LXFL 529): 4.35 µM (inactive)

Structure (SMILES): COc1ccc(-c2cc(=O)c3ccccc3[nH]2)c(OC)c1
- GI50 (DMS-273): > 100 µM (inactive)
- GI50 (DMS-114): > 100 µM (inactive)
- GI50 (SNB-78): > 100 µM (inactive)
- GI50 (DLD-1): > 100 µM (inactive)
- GI50 (M19-MEL): > 100 µM (inactive)
- GI50 (LXFL 529): > 100 µM (inactive)
- GI50 (KM-20L2): > 100 µM (inactive)

Structure (SMILES): CCN(CC)CCn1ccc(=O)c2cc3c(=O)ccn(CCN(CC)CC)c3c(C)c21
- GI50 (DMS-273): 3.58 µM (inactive)
- GI50 (RXF 631): 5.74 µM (inactive)
- GI50 (XF498): 8.95 µM (inactive)
- GI50 (DMS-114): 13.8 µM (inactive)
- GI50 (SNB-78): 11.4 µM (inactive)
- GI50 (DLD-1): 1.65 µM (inactive)
- GI50 (M19-MEL): 12.6 µM (inactive)
- GI50 (LXFL 529): 4.41 µM (inactive)
- GI50 (KM-20L2): 3.61 µM (inactive)

Structure (SMILES): CCC(C)Cn1c(C)nc2c1C(=O)c1ccccc1C2=O (stereo not drawn)
- GI50 (DMS-273): 9.86 µM (inactive)
- GI50 (XF498): 22.5 µM (inactive)
- GI50 (SNB-78): 34.4 µM (inactive)
- GI50 (DLD-1): 24.6 µM (inactive)
- GI50 (M19-MEL): 18.1 µM (inactive)
- GI50 (LXFL 529): 17 µM (inactive)
- GI50 (KM-20L2): 31.2 µM (inactive)

Structure (SMILES): Oc1nc2cc(Cl)ccc2nc1/C(=N\Nc1ccccc1)C(O)c1ccc(Cl)c(Cl)c1 (stereo not drawn)
- GI50 (DMS-273): > 100 µM (inactive)
- GI50 (RXF 631): > 100 µM (inactive)
- GI50 (DMS-114): > 100 µM (inactive)
- GI50 (SNB-78): > 100 µM (inactive)
- GI50 (DLD-1): > 100 µM (inactive)
- GI50 (M19-MEL): > 100 µM (inactive)
- GI50 (LXFL 529): > 100 µM (inactive)
- GI50 (KM-20L2): > 100 µM (inactive)

Structure (SMILES): Nc1ncnc2c1sc(=S)n2-c1ccccc1
- GI50 (DMS-273): > 100 µM (inactive)
- GI50 (XF498): > 100 µM (inactive)
- GI50 (DMS-114): > 100 µM (inactive)
- GI50 (SNB-78): > 100 µM (inactive)
- GI50 (DLD-1): > 100 µM (inactive)
- GI50 (M19-MEL): > 100 µM (inactive)
- GI50 (LXFL 529): > 100 µM (inactive)
- GI50 (KM-20L2): > 100 µM (inactive)

Structure (SMILES): CCCCCCCCCCCCOP(N)(=O)OCCCCCCCCCCCC
- GI50 (DMS-273): > 100 µM (inactive)
- GI50 (DMS-114): > 100 µM (inactive)
- GI50 (SNB-78): > 100 µM (inactive)
- GI50 (DLD-1): > 100 µM (inactive)
- GI50 (M19-MEL): > 100 µM (inactive)
- GI50 (LXFL 529): > 100 µM (inactive)

Structure (SMILES): CC1(C)C(=O)C(C)(C)C1=S
- GI50 (DMS-273): > 100 µM (inactive)
- GI50 (XF498): > 100 µM (inactive)
- GI50 (DMS-114): > 100 µM (inactive)
- GI50 (DLD-1): > 100 µM (inactive)
- GI50 (M19-MEL): > 100 µM (inactive)
- GI50 (LXFL 529): > 100 µM (inactive)
- GI50 (KM-20L2): > 100 µM (inactive)

Structure (SMILES): CCOP(=O)(C/C(O)=C1\C(=O)C(CCCNC(=O)OC(C)(C)C)N(Cc2ccc(OC)c(OC)c2)C1=O)OCC (stereo not drawn)
- GI50 (DMS-273): > 100 µM (inactive)
- GI50 (RXF 631): > 100 µM (inactive)
- GI50 (DMS-114): > 100 µM (inactive)
- GI50 (DLD-1): > 100 µM (inactive)
- GI50 (M19-MEL): > 100 µM (inactive)
- GI50 (LXFL 529): > 100 µM (inactive)
- GI50 (KM-20L2): > 100 µM (inactive)

Structure (SMILES): COC(C)(C)[C@H](O)C(O)CC(C)[C@@H]1CCC23CC12CCC1[C@@]2(C)CCC(OC(C)=O)C(C)(C)C2CC(OC2OC(COC(C)=O)C(O)C(O)C2O)[C@]13C (stereo partly drawn)
- GI50 (DMS-273): 2.97 µM (inactive)
- GI50 (RXF 631): 4.86 µM (inactive)
- GI50 (DMS-114): 2.61 µM (inactive)
- GI50 (SNB-78): 8.07 µM (inactive)
- GI50 (DLD-1): 1.83 µM (inactive)
- GI50 (M19-MEL): 3.01 µM (inactive)
- GI50 (LXFL 529): 4.89 µM (inactive)
- GI50 (KM-20L2): 1.1 µM (active)

Structure (SMILES): C=C(CN(C)C)C(=O)c1ccccc1[N+](=O)[O-]
- GI50 (DMS-273): 18.2 µM (inactive)
- GI50 (RXF 631): 19 µM (inactive)
- GI50 (XF498): 17.1 µM (inactive)
- GI50 (DMS-114): 18.3 µM (inactive)
- GI50 (SNB-78): 26.7 µM (inactive)
- GI50 (DLD-1): 13.4 µM (inactive)
- GI50 (M19-MEL): 17.8 µM (inactive)
- GI50 (LXFL 529): 14.8 µM (inactive)
- GI50 (KM-20L2): 23.4 µM (inactive)
